Biological target: T1, DrOTOP1 G130W/E384A (Danio rerio, UniProt Q7ZWK8, E384A/G130W)
T1 construct: A previously generated codon-optimized full-length DrOTOP1[8]; (UniProt: Q7ZWK8) construct; expressed in transfected cells; host or cells: HEK-293 (CRL-1573, ATCC)
T1 sequence (Q7ZWK8 1-586 G130W/E384A): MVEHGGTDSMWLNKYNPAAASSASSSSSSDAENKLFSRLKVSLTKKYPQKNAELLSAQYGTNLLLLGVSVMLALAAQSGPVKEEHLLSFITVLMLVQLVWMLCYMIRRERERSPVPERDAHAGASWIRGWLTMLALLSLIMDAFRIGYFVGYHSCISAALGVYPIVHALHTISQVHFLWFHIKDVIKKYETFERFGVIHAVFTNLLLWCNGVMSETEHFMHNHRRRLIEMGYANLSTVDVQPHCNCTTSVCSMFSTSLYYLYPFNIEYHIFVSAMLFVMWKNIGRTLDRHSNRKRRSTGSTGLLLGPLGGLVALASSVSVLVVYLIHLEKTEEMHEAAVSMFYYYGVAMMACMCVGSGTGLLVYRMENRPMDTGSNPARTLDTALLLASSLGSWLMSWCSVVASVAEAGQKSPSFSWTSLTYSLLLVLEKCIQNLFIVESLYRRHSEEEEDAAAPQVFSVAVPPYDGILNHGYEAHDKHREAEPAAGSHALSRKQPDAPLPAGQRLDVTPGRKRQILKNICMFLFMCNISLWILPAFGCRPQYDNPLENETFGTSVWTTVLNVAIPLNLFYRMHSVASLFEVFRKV
Test: Whole-cell patch-clamp, inhibition of acid-evoked currents, DrOTOP1 G130W/E384A
Format: cell-based, zebrafish (Danio rerio)
Protocol: Given our limited success in identifying mutations of the central site that disrupt antagonism by C2.2, we tested whether mutations of the central site in a background of G130W (the most impactful outer site mutation) might unmask contributions of this site. Thus, we generated and tested double mutants of G130W with E384A, A274W, and A388W. […] We also measured the dose-dependence of inhibition by C2.2 for both G130W/A388W and G130W/E384A (Fig. 5I, J). […] G130W was tested in parallel to confirm that 100 and 300 μM C2.2 produced dose-dependent inhibition.
HEK-293 cells (CRL-1573, ATCC) were cultured in DMEM (Thermofisher 11995073) containing 10% fetal bovine serum (Life Technology 16000044) and Penicillin-Streptomycin (100 I.U./mL) and (100 µg/mL), respectively. Cells were transfected with WT DrOTOP1 or mutant DrOTOP1 channels in 35 mm petri dishes, with ~ 500 ng DNA and 2 μL TransIT-LT1 transfection reagent (Mirus Bio Corporation, Cat # MIR2300) following the manufacturer’s protocol. All constructs were subcloned into a pcDNA3.1 vector that adds an N-terminal fusion tag consisting of an octahistidine tag followed by eGFP, a Gly-Thr-Gly-Thr linker and a 3C protease cleavage site ([…]) followed by WT DrOTOP1, WT mOTOP1, WT hOTOP1, or mutated DrOTOP1. Point mutations were generated via In-Fusion Cloning (Takara) using single-stranded DNA primers generated through IDT and sequence confirmed by Sanger sequencing (GeneWiz).
Whole-cell patch-clamp recording was performed as previously described[6],[22],[25]. Recordings were made with an Axopatch 200B amplifier, digitized with a Digidata 1322a 16-bit data acquisition system, acquired with pClamp 8.2 and analyzed with Clampfit 10 (Molecular Devices). Recordings were sampled at 5 kHz and filtered at 1 kHz. Patch Pipettes with resistance of […] were fabricated from borosilicate glass, and only recordings with a giga-Ohm seal were used in analysis. Membrane potential was held at −80 mV for the duration of recordings. At the beginning of recordings and between, cells were washed with Tyrode’s solution (see below). Once a giga-Ohm seal was reached, cells were lifted and placed in front of microcapillary tubes controlled by a Fast-Step perfusion system (Warner Instruments) so that extracellular solutions could be rapidly exchanged during each experiment.
Standard Tyrode’s solution consisted of 145 mM NaCl, 5 mM KCl, MgCl2, 2 mM CaCl2, 20 mM D-Glucose, and 10 mM HEPES (for pH 7.4). All other extracellular patch-clamp solutions contained 160 mM NMDG-Cl, 2 mM CaCl2, and the following buffers: 10 mM HEPES (for pH 7.4), 10 mM MES (for pH 6.5-5.5), 10 mM CHES for pH 10, and 10 mM HomoPIPES for (pH 5.0). pH adjusted with HCl. […]
All data are presented as mean ± SEM unless otherwise noted, and each data point represents an independent replicant. Inhibition of compounds was quantified as ((I2peak-I1)/(I2peak))*100, where I1 is the current immediately before wash-off and I2peak is the maximum recovered current (Supplementary Fig. 2). Hill coefficients were determined by the following equation: Y = Bmax*X^h/(Kd^h + X^h). Absolute IC50 was determined by the following equation: Fifty = (Top + Baseline)/2 Y = Bottom + (Top-Bottom)/(1 + ((Top-Bottom)/(Fifty-Bottom) − 1)*(AbsoluteIC50/X)^HillSlope). pH50 curves (Fig. 6G inset) were determined using the following equation: Y = Bottom + (Top-Bottom)/(1 + (EC/X)^HillSlope) where EC = EC50 control. […]

`C=C(C)COc1ccccc1NC(=O)c1nc[nH]c1C` [C2.2] showed an inhibition at 10 µM (10 µM, DrOTOP1 G130W/E384A, single cells or mean) of 3.23%, an inhibition at 300 µM (DrOTOP1 G130W/E384A, saturated by 100 µM, no further inhibition at 300 µM, read-out: Maximal inhibition (saturation)) of ~50% and a HillSlope (G130W/E384A, best-fit value) of 2.538. For the same molecule, the LogAbsoluteIC50 (G130W/E384A, best-fit value) was 1.644 and the IC50 (G130W/E384A, best-fit value, Top fitted, Bottom = 0, read-out: AbsoluteIC50) was 44.1 µM.

Source: article PMC12549899 (Nature Communications, 2025)
